In ChEMBL document CHEMBL3580539, “Discovery of small molecule inhibitors targeting the SUMOSIM interaction using a protein interface consensus approach” (Medchemcomm, 2014):

biological target: Small ubiquitin-related modifier 2/3 (SUMO 2/3) (Homo sapiens, UniProt P61956+P55854); test: Binding affinity to His-tagged SUMO2/3 (unknown origin) expressed in Escherichia coli BL21 (DE3) measured over 120 secs by SPR analysis

| Kd | SMILES |
| --- | --- |
| 29 µM | C=CCNc1nc(NCc2ccccn2)nc2ccccc12 |
| 59 µM | COCC(C)n1c(NCc2ccccn2)nc2ccccc2c1=O (stereo not drawn) |
| 1.9 µM | CC(NS(=O)(=O)c1ccc(Cl)c(Cl)c1)C(=O)NNC(=O)c1ccccc1O (stereo not drawn) |
